Results reported in PubChem BioAssay AID179 (DTP/NCI, 2004).
The source made the active and inactive calls.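 How the source made its calls: active means compounds giving half or more protection of infected cells from virus-caused growth loss, again on retest; inactive means the rest.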 *1 amine or outer side, *2 acyl side, *3 side chain or, on linkers, in order; H or OH if unused. Where a SMILES comes first, the peptide text is derived from it. Bridges are numbered along the chain shown (N, C = ends). [ ]: non-standard residue; d: D form. The star is where a group is joined. ξ: configuration not given here. γ4hArg(2R,3R-(OH)2) = N=C(N)NCCC[C@H](N[*:1])[C@@H](O)[C@@H](O)C(=O)[*:2]; Gln(3S,4R-Me2) = C[C@H]([C@H](N)C(=O)O)[C@@H](C)C(N)=O; X5 = CC(C)C[C@H](C)[C@@H](O)[C@@H](C)C(=O)*; X6 = COC(c1ccc(O)cc1)C(N[*:1])C(=O)[*:2]; NMeQ = CN[C@@H](CCC(N)=O)C(=O)O; Thr(3ξ) = CC(O)[C@H](N)C(=O)O; NMeA = CN[C@@H](C)C(=O)O

System: CEM cells HIV-1 protection, formazan growth assay
Assay: NCI AIDS Antiviral Assay
Conditions: for IC50: measured here: growth of uninfected CEM cells
Summary of the method: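 Five concentrations of each compound were applied to infected and uninfected human CEM cells. Protection from HIV-1 was judged from growth measured with a soluble formazan assay.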

Row | Compound | EC50 [µM] | IC50 [µM] | outcome
1 | O=C(O)c1cc(=O)c2cc(C(=O)c3cccs3)c(Cl)c(Cl)c2o1 | > 9.55 | > 9.55 | –
2 | COC(=O)N1[C@@H]2C=CC=CC=C2[C@@H](OC)N1C(=O)OC | > 158 | 89.1 | –
3 | Cc1ccc(S(=O)(=O)N2CCCCC2)cc1 | > 200 | 72.4 | –
4 | Cc1c(COC(=O)NC(C)C)c(COC(=O)NC(C)C)c2n1CSC2 | > 51.3 | 2.4 | –
5 | CCn1c(=O)c(N=O)c(N)n(CC(C)C)c1=O | > 200 | 174 | –
6 | O=C(CN1CCCCC1)c1ccc(CCc2ccc(C(=O)CN3CCCCC3)cc2)cc1 | > 200 | 95.5 | –
7 | CC(=O)Nc1ccc(/C=C2\SC(=S)N(/C=C(\C(C)=O)C(N)=O)C2=O)cc1 | > 200 | 72.4 | –
8 | c1ccc(Cn2c(-c3ccc(-c4ccccc4)cc3)cc3ccccc32)cc1 | > 100 | > 100 | –
9 | O=C1COc2cccnc2N1CCCCO | > 200 | > 200 | –
10 | COC(=O)CC[C@@H](C)C1CCC2[C@@H]3CC[C@@H]4CC(COS(=O)(=O)c5ccc(C)cc5)CC[C@]4(C)C3CC[C@@]21C (stereo partly specified) | > 8.32 | > 8.32 | –
11 | Cc1cc(C)c(C)c(C(=O)OCC(C)(C)C)c1C | > 200 | 110 | –
12 | CCOC(=O)C1(Cc2ccc3c(c2)CCC3)Cc2cc3c(cc2C1=O)CCC3 (stereo unspecified) | > 200 | 23.4 | –
13 | Cc1cccc2c3ccc4c(c3n(C)c12)C(=O)C=CC4=O | > 49 | 24.5 | –
14 | CCN(CC)C(=O)Cn1c(-c2ccccc2)cc2ccccc21 | > 200 | 40.7 | –
15 | Cc1ccc2ccc3c(=O)cc(C)[nH]c3c2n1 | 9.77 | 32.4 | –
16 | Cc1oc2cc(O)ccc2c(=O)c1-c1ccccc1Br | > 200 | 16.6 | –
17 | C=C(C)C(=O)N1c2ccc(OC)cc2CC1C(=O)OCC (stereo unspecified) | > 200 | > 200 | –
18 | CCOC(=O)C1=C(NC(C)(C)C)OCC1=O | – | – | inactive
19 | CCOC(=O)C(=CN1CCNC1=S)C(=O)OCC | > 200 | > 200 | –
20 | CC(=O)Oc1c2c(c(O)c3ccccc13)C(n1cnc3c(ncn3C3OC(CO)C4OC(C)(C)OC43)c1=N)CCC2 (stereo unspecified) | > 45.7 | 12.9 | –
21 | Nc1nc(N)nc(-c2cccs2)n1 | > 200 | > 200 | –

Row | Compound | EC50 [µM] | IC50 [µM] | outcome
22 | Cc1ccc(S(=O)(=O)NN=C2C(C)CC(C(C)(C)C)CC2C)cc1 (stereo unspecified) | > 200 | 31.6 | –
23 | NC(CCC(=O)NC(CSc1ccc([N+](=O)[O-])cc1[N+](=O)[O-])C(=O)NCC(=O)O)C(=O)O (stereo unspecified) | > 525 | > 525 | –
24 | CC(=O)Oc1ccccc1[C@H]1CC(=O)C[C@H](c2ccccc2OC(C)=O)C12C(=O)c1ccccc1C2=O | > 200 | 46.8 | –
25 | C[C@H]1C(=O)O[C@@H]1[C@H]1COC(C)(C)O1 | > 200 | > 200 | –
26 | CC(C)CC(=O)NC(C(=O)NC(C(=O)NC(CC(C)C)C(O)CC(=O)NC(C)C(=O)NC(CC(C)C)C(O)CC(=O)O)C(C)C)C(C)C (stereo unspecified) | > 36.3 | > 36.3 | –
27 | CCCCCCCCCCC(=O)CCCCCCC(=O)O | – | – | inactive
28 | COc1ccc2ccccc2c1-c1cccc2ccccc12 | > 200 | 32.4 | –
29 | COc1ccc(NC(=O)CC2SC(=Nc3ccc(Cl)cc3C)NC2=O)c([N+](=O)[O-])c1 (stereo unspecified) | > 398 | > 398 | –
30 | Cc1cn(C2CC(N=[N+]=[N-])C(CO)O2)c(=O)nc1N (stereo unspecified) | > 200 | > 200 | –
31 | COc1ccc2c(ccc3[nH]c4c(C)cnc(NCCCN)c4c32)c1 | > 2 | 0.219 | –
32 | O=S(=O)(O)CC(O)CCl (stereo unspecified) | > 200 | > 200 | –
33 | CSCCC(NOC(=O)Cc1ccccc1)P(=O)(O)c1ccccc1 (stereo unspecified) | 195 | 240 | –
34 | CSCS(=O)C[C@H](CO)NC(=O)/C=C/c1c(C)[nH]c(=O)[nH]c1=O (stereo partly specified) | > 692 | 0.447 | –
35 | c1ccc(C2=C(c3ccccc3)/N=N/C(c3ccccc3)=C(c3ccccc3)\N=N\2)cc1 | > 200 | > 200 | –
36 | CCCCCCCCCO/N=C\c1c2c(O)c3c(O)c(C)c4c(c3c1O)C(=O)C(C)(O/C=C\C(OC)C(C)C(OC(C)=O)C(C)C(O)C(C)C(O)C(C)/C=C\C=C(\C)C(=O)N2)O4 (stereo unspecified) | > 200 | 3.16 | –
37 | CN1CN(c2ccccc2)C2(CCN(Cc3nc4ccccc4s3)CC2)C1=O | > 200 | 30.9 | –
38 | O=C(Cc1nc2ccccc2s1)C(=O)Nc1cccc(Cl)c1 | – | – | inactive
39 | Cc1cc(Cl)ccc1NC(=O)CC/C(CC(=O)C(C)C)=N\NC(=O)C[n+]1ccccc1 | > 16.2 | > 16.2 | –
40 | CC(C)CCC[C@@H](C)C1CCC2C3CCC4C[C@@](O)(C(c5cc(Cl)c(O)c(C(=O)O)c5)c5cc(Cl)c(O)c(C(=O)O)c5)CC[C@]4(C)C3CC[C@@]21C (stereo partly specified) | > 200 | 25.1 | –
41 | Cc1cc(O)c(/C=N/C(N)=S)c(=O)o1 | > 200 | > 200 | –
42 | CC(=O)Nc1ccc(/C=C/C(=O)c2sc(-c3nc(C)c(C(=O)/C=C/c4ccc(NC(C)=O)cc4)s3)nc2C)cc1 | > 33.1 | > 33.1 | –

Row | Compound | EC50 [µM] | IC50 [µM] | outcome
43 | COc1ccc(N2C(=O)c3cc([N+](=O)[O-])cnc3S2(=O)=O)cc1 | > 200 | 28.2 | –
44 | CSc1nc(Cl)c2c(n1)Sc1nc3ccccc3n1C2O (stereo unspecified) | > 200 | 6.31 | –
45 | CCOc1ccc2nc(NC(=O)C(=O)C3C(=O)C(CC4C(=O)c5ccccc5C4=O)C(=O)CC3(C)C)sc2c1 (stereo unspecified) | > 6.92 | > 6.92 | –
46 | C1=NCCN=Cc2ccccc2NCCNc2ccccc21 | > 200 | 91.2 | –
47 | CC1CC/C(=C\c2ccc(F)cc2)C2=C1C(c1ccc(F)cc1)n1c(s/c(=C/c3cccc(Br)c3)c1=O)=N2 (stereo unspecified) | – | – | inactive
48 | COC(c1ccc(O)cc1)C1NC(=O)[C@H](CCC(N)=O)N(C)C(=O)[C@H](CC(C)C)NC(=O)[C@@H](CCCN=C(N)N)NC(=O)[C@H](C(C)O)NC(=O)[C@@H](NC(=O)[C@@H](NC(=O)[C@H](O)[C@H](O)[C@H](CCCN=C(N)N)NC(=O)[C@H](C)NC(=O)[C@H](C)[C@H](O)[C@@H](C)CC(C)C)[C@@H](C)[C@@H](C)C(N)=O)[C@@H](C)OC(=O)[C@H](C)N(C)C1=O (stereo partly drawn) (X5-A[γ4hArg(2R,3R-(OH)2)][Gln(3S,4R-Me2)]T[Thr(3ξ)][dR]L[NMeQ][X6][NMeA]; ester 4-C) | 0.0933 | 0.794 | –
49 | O=C1CC(=O)n2cnc3cccc(c32)N1 | 17.4 | > 200 | –
50 | Cc1ccc(NC(=O)CCC(=O)C2CC(=O)CCC2=O)cc1C (stereo unspecified) | > 794 | > 794 | –
51 | COC(=O)C1C2COc3ccccc3C2=NC1c1ccc([N+](=O)[O-])cc1 (stereo unspecified) | > 100 | 13.8 | –
52 | Cc1ccc2oc(=O)c(C#N)c(/C=C/c3cccc4ccccc34)c2c1 | > 200 | > 200 | –
53 | C=C1CCc2occ(C)c2C2C1C1=C(CC(C)C1=O)C1OC12C (stereo unspecified) | > 219 | > 219 | –
54 | O=C1CC23CCCC2(C1)CC(=O)C3 (stereo unspecified) | > 126 | > 126 | –
55 | CSc1sc(C)cc1-c1nsc(=O)o1 | > 200 | > 200 | –
56 | COc1ccc2c(c1)[C@@H]1c3cc(OC)c(OC)cc3CCN1CCC2 | > 200 | > 200 | –
57 | CC(=O)N1C2=CCCC2(C)c2ccccc21 (stereo unspecified) | > 200 | 56.2 | –
58 | OCC1C(O)[C@@H]2OC3(CCCC3)O[C@@H]2CN1OC/C=C/c1ccccc1 (stereo partly specified) | > 200 | 145 | –
59 | N#Cc1c(-c2ccccc2)nc(-c2ccccc2)sc1=S | > 100 | > 100 | –
60 | O=c1cc(NNc2cccc(F)c2)[nH]c(=O)[nH]1 | > 200 | 1.1 | –
61 | O=C(O)CC/C(=N\Nc1nsc2ccccc12)c1ccc(Cl)cc1 | > 10.5 | 6.76 | –
62 | COc1ccc2c(c1)CCC1C(=O)NN=C21 (stereo unspecified) | > 776 | > 776 | –
63 | CCN(CC)CCn1nc(N)c2nc3ccccc3nc21 | > 200 | 107 | –

Row | Compound | EC50 [µM] | IC50 [µM] | outcome
64 | O=C1C=CC=C/C1=C1\N=C(c2ccccc2OCC(=O)c2ccc(Br)cc2)SS1 | > 50.1 | 19.5 | –
65 | CC(=O)OCC1C(OC(C)=O)CC2CCC1N2C#N (stereo unspecified) | > 200 | > 200 | –
66 | CC1CN(c2cc3c(cc2F)c(=O)c(C(=O)O)cn3-c2ccc(F)cn2)CC(C)N1 (stereo unspecified) | > 200 | > 200 | –
67 | O=C(O)[C@H](Cc1ccccc1)NCCN1CCC[C@H]1C(=O)O | > 200 | > 200 | –
68 | CC1=NN(C(=O)c2ccccc2O)C(=O)/C1=C/c1ccc([N+](=O)[O-])cc1 | > 53.7 | 0.0912 | –
69 | CC(=S)NC1C(Oc2ccc3c(C)cc(=O)oc3c2)OC(CO)C(O)C1O (stereo unspecified) | > 200 | > 200 | –
70 | N#CS/C(Cl)=C(/C(Cl)=C(Cl)Cl)[N+](=O)[O-] | – | – | inactive
71 | Oc1ccccc1/C=N/NC(=S)Nc1cccc2cc3ccccc3nc12 | > 200 | 0.575 | –
72 | Cc1ccc(C2CC3(c4ccccc4)ON=C(c4ccccc4)N3c3ccccc3S2)cc1 (stereo unspecified) | > 200 | 41.7 | –
73 | CC(C)(C)C(=O)/C=C/c1ccc(Br)cc1 | – | – | inactive
74 | COc1c(C)c2c(c3c1c(=O)c1ccccc1n3C)C=CC(C)(C)O2 | > 15.5 | 11 | –
75 | CC(=O)N1C(C(=O)NN2CCOCC2)CSC1c1ccccc1 (stereo unspecified) | > 200 | > 200 | –
76 | CC(=O)OCC1OC(OC(C)=O)C(On2nnc3c(-c4ccccc4)c(C)nn32)C(OC(C)=O)C1OC(C)=O (stereo unspecified) | > 60.3 | 31.6 | –
77 | COC(=O)C1(C2CCOC2=O)NCCc2c1[nH]c1ccccc21 (stereo unspecified) | > 245 | 141 | –
78 | COc1ccc2c(c1)CCC1OC(c3cccnc3)OC21 (stereo unspecified) | > 200 | 30.2 | –
79 | COc1cc(C2c3cc4c(cc3OC(NNc3ccccc3)C2C)OCO4)cc(OC)c1O (stereo unspecified) | – | – | inactive
80 | O=S(=O)(O)c1cc(N=Nc2ccc(O)c3ncccc23)ccc1/C=C/c1ccc(N=Nc2ccc(O)c3ncccc23)cc1S(=O)(=O)O | > 105 | > 105 | –
81 | CCN1C(=O)C(=O)C(CC)(CC)C1=O | > 200 | > 200 | –
82 | CCc1cccc(C)c1NC(=O)CCc1nc(=S)[nH][nH]1 | > 617 | > 617 | –
83 | COC1=CC2(C=CC1=O)CCC(=O)O2 (stereo unspecified) | 10.5 | 174 | –
84 | CC12CCC(=O)N1c1cncnc1N2 (stereo unspecified) | > 1320 | > 1320 | –
